Data: US20110066134A1, “Controlling Drug Transport and Current in Iontophoretic Onychomycosis Treatment” (Nitric Biotherapeutics, Inc., priority 2009, published 2011)
Several values for one entry are separate records, joined by “and”; a condition that tells them apart may be missing. Identical values can stand only once.

Columns and labels:
[1] = Cadaver toe delivery testing: iontophoretic terbinafine loading into nail, nail bed and surrounding tissue; type: in vitro ADME
Protocol: The results of drug loading experiments in cadaver toes reported by Nair [Nair et al., 2009, Pharm Res. 26(9):2194-201] were compared with current measurements made using the current test fixture of FIG. 1 and models for the two tissue groups. The experiments disclosed herein were conducted to determine 1) if a drug delivery gradient existed in masked drape applications, and how that correlated with drug assays in cadaver toes; and 2) to determine the proportion of current flowing in soft tissue vs. into nail in cadaver toe delivery, and to compare that with drug loading found by Nair in the two tissue types. It is believed that the transfer efficiency is higher in nail than into soft tissue.
Cadaver Toe Delivery Testing: Six cadaver toes were soaked in physiologic saline prior to treatment. Each terbinafine loaded applicator type (masked drape and full drape) was placed on the toe and iontophoretic treatment of 0.5 mA for 20 min was delivered. Post treatment, the nails, and sections of nail bed and surrounding tissue, were excised and analyzed. The amount of loaded terbinafine was compiled for each section. The iontophoretic power source and general configuration for the applicator on the cadaver toe are depicted in FIGS. 2A and 2B. Additional details regarding methods used and experimental details for cadaver toe delivery tests can be found in [Nair et al., 2009, Pharm Res. 26(9):2194-201].
FIG. 3A depicts drug assay results from cadaver nails following iontophoresis using a masked drape applicator, while FIG. 3B depicts current measurements taken at the same current levels through cadaver nail into agarose. Terbinafine sample data was compiled allocating samples to the same relative spacing as current sensing nodes in the current test fixture of FIG. 1. […] Results of finite element analysis for essentially masked electrodes over tissue that illustrate gradients with higher resolution can also be seen as provided by Kresteva and Papazov [Krasteva et al., Biomed Eng Online. 2002 Dec. 16; 1:7].
where tx is the transport number, F is Faraday's constant, A is area of application and zx is charge. For a particular “membrane” or “tissue type”, tx is the ratio of (charge, mobility and drug concentration of the charge carrier) to the product of these for all charge carriers, i is current and vcx is an electroosmotic term. Rather than determine individual elements of Kalia's formula, an aggregate transport number of skin (tskin) and nail & nail bed (tnail) can be calculated, essentially aggregating the factors and segmenting them into soft tissue plus nail/nail bed.
Where l is the amount of drug loaded for skin or nail. For a given dose in uA-min, the amount of terbinafine loaded into cadaver nail & nail bed vs. cadaver skin vs. delivered dose and calculated transfer number is
ltotal=lskin+lnail,lskin=dskin×tskin and lnail=dnail×tnail in ug/mA-min, (5)
where dskin, dnail is the product of current through skin (or nail) and time (dose), tskin, tnail is an aggregate of all factors related to delivery into skin (or nail) and lskin, lnail is the amount of terbinafine loaded into skin (or nail).
Table III lists the areas of delivery, current and transfer number calculations for the 6 cadaver toe trials. FIG. 9 depicts the average transport numbers including values calculated for current (for reference), skin alone in Franz cell and Rat.

clinical = details: human, in vivo
Protocol: Both applicator designs were used in clinical studies, including clinical nail samples at various iontophoretic dose levels taken 24 hours post treatment. For an average dose of about 8 mA-min, drug amounts for masked drape clipping assays averaged about 423 ug/g and full drape clippings averaged about 842 ug/g. The clipping sizes and volumes varied (n=80, mean=[…], sd=1.8). The amount of drug found in nail clippings for the masked drape treatments appeared to be lower than expected given the higher current concentration in nail vs. levels found for the full drape treatments at a lower level of nail current.
It is believed that the lower drug levels found during the clinical study from nail clippings in the masked drape applications was the result of samples at the extremities of the nail. As contemplated herein, the presence of a drug delivery gradient is supported by the location of clinical nail samples, the results of current distribution modeling and the cadaver toe experiments.
For example, the current measurement and drug loading maps for cadaver nail and toe as depicted in FIG. 3 indicate a significant gradient. Drug loading at the periphery of the nail was about 26 to 77 times less than drug loading in the center of the nail. Nail clippings for the masked drape group in the clinical studies provided herein were taken about 24 hours post treatment from the distal nail. Samples varied in size and volume, but averaged about 1.8 mm long. This size and location corresponds with the nail sampling performed in the cadaver toe experiments in the category of “peripheral 2” or “remaining” and depicted in FIG. 3A in about the 9 to 12 mm range. The current levels predicted by the model in the same areas correlate well with drug distribution samples, r=0.998, p=0.000.
Applying the cadaver transfer number for nail vs. skin to the in-vivo results yields an estimate for nail and drug delivered for both tissues (based upon resistance ratios calculated from measured voltages during the clinical study.)
FIG. 10 depicts the projected delivery of terbinafine into skin and nail for full drape using cadaver transfer number calculation. The mean level of terbinafine estimated to have been delivered with full drape treatments to patients in the clinical studies using this method is about 12.4 ug skin, 9.4 ug nail, as compared with a mean of about 15 ug skin and 14 ug nail for cadaver toes.

[2] = cadaver toe, full drape, 0.5 mA for 20 min, average of 6 trials
[3] = cadaver toe, full drape, 0.5 mA for 20 min, individual Trials 1-6

For `CN(C/C=C/C#CC(C)(C)C)Cc1cccc2ccccc12` [terbinafine], the “tf nail = (ug/cm^2)/(dose/cm^2), Avg” value [1, 2] was 5.180 (ug/cm^2)/(dose/cm^2), the “tf skin = (ug/cm^2)/(dose/cm^2), Avg” value [1, 2] was 2.181 (ug/cm^2)/(dose/cm^2) and the “tf nail = (ug/cm^2)/(dose/cm^2)” value [1, 3] was 6.358 (ug/cm^2)/(dose/cm^2) and 7.438 (ug/cm^2)/(dose/cm^2) and 3.805 (ug/cm^2)/(dose/cm^2) and 2.328 (ug/cm^2)/(dose/cm^2) and 3.917 (ug/cm^2)/(dose/cm^2) and 7.237 (ug/cm^2)/(dose/cm^2). For the same compound, the “tf skin = (ug/cm^2)/(dose/cm^2)” value [1, 3] was 1.745 (ug/cm^2)/(dose/cm^2) and 1.632 (ug/cm^2)/(dose/cm^2) and 1.975 (ug/cm^2)/(dose/cm^2) and 2.368 (ug/cm^2)/(dose/cm^2) and 1.961 (ug/cm^2)/(dose/cm^2) and 3.403 (ug/cm^2)/(dose/cm^2), the “aggregate transport number for the nail-only application compared with nail in the full drape application” value ([1]; cadaver toe, n=4, p=0.032) was “less than the factor for nail in the full drape application” and the “delivery into skin compared with nail & nail bed” value ([1]; cadaver toes, about 0.5 mA for 20 min, p=0.78, n=6) was “statistical equivalence”. For the same compound, the “mean terbinafine delivered to nail” value ([1]; cadaver toes, full drape) was roughly 14 µg, the “mean terbinafine delivered to skin” value ([1]; cadaver toes, full drape) was “about 15 ug” and the “mean level of terbinafine estimated to have been delivered to nail” value (clinical) was roughly 9.4 µg. For the same compound, the “mean level of terbinafine estimated to have been delivered to skin” value (clinical) was “about 12.4 ug”, the concentration at 24 h (clinical; Mean Nail Levels, Applicator Design Nail/Skin) was 988000 ng/g and the concentration at 24 h (clinical; average drug amount in full drape clippings) was roughly 842000 ng/g. It also gave a concentration at 24 h (clinical; average drug amount in masked drape clipping assays) of roughly 423000 ng/g.
